# According to patent publication US20030105360A1, “Form a of fluoxetine hydrochloride” (priority 2001, published 2003):
# Format: physicochemical
# Method: Using the appropriately precise DSC method set forth in Example 12 herein, wherein the analysis is conducted at a maximum rate of 1° C. per minute, multiple levels of polymorph Forms A, B, and C each are typically present in fluoxetine hydrochloride API (FIGS. 2 and 4). When such API is prepared via any one of the methods of the present invention, recrystallization, slurry, and compression, and analyzed using said DSC method, a single endotherm occurring at a temperature range from about 155° C. to about 160° C., and more preferably from about 157° C. to about 159° C., confirms the presence of Form A of fluoxetine hydrochloride (FIGS. 6 and 8 for the compression and slurry methods, respectively). […] Accordingly, the slurry method for preparing pure and essentially pure Form A is preferred, while the compression method is especially preferred.
# Differential Scanning Calorimetry for fluoxetine hydrochloride. The method described in Example 11 was used, except the heating rate was changed from 10° C. per minute to a heating rate of 1° C. per minute from 145° C. to 175° C.
smiles,measurement,setting,value
"CNCCC(Oc1ccc(C(F)(F)F)cc1)c1ccccc1.Cl (racemic) [Form A, (±)-N-methyl-3-phenyl-2-[α,α,α-trifluoro-p-tolyl) oxy] propylamine hydrochloride]",polymorphic forms found by DSC after storage under accelerated stability conditions,,"two additional polymorphs of fluoxetine hydrochloride, Forms D and E, were prepared"
same,polymorphic forms found by DSC thermogram (FIG. 11) after storage,"pure Form A prepared via recrystallization method, stored at 40° C. and 75% relative humidity, within three days","Forms A, D, and E, which formed within three days"
